# Where two headings read alike, the source gives them in different places.
# Test: Pharmacokinetics after a single SC or PO dose
# Format: in vivo, mouse
# Details: for Tmax: read-out: Observed Tmax
# Experimental: The pharmacokinetic parameters of 4b following dosing with either 5 mg/kg subcutaneous (sc) injection using the soluble formulation, or 4b per oral (po) by gavage (50 mg/kg in suspension) in mice plasma and whole brain homogenate are shown in Fig. 4 and Table 1. Triplicate dose formulation samples were retained and analyzed to ensure an accurate concentration of 4b was injected. The sc dose was calculated to be on average 84.3% of the 5 mg/kg target dose. Therefore, for PK analysis purposes, the dose level for this group was adjusted to 4.22 mg eq./kg based on the reported average dose formulation concentration and calculation parameters were adjusted accordingly. The po gavage dose was accurate at 50 mg/kg (within 104% of the nominal concentration of 10.0 mg/mL), and triplicate sampling from the vial (1 per strata; top, middle, and bottom) confirmed that the suspension dosed was homogeneous.
# All dose formulation procedures were conducted under yellow lighting conditions to protect 4b from light. For the subcutaneous dose group, 2.504 mg 4b was weighed, and transferred into a formulation container. NMP (0.05 mL) was added and the contents were vortexed until 4b was completely dissolved. With continuous vortexing after each addition, PEG400 (0.45 mL), Solutol HS-15 (0.25 mL) and finally 1% Lutrol F68 in RODI water (1.75 mL) followed by sonication for 6 min. The formulation was filtered into a sterile serum vial using a 0.22 µm Millex GV PVDF filter. The resultant formulation was a clear colorless solution.
# For the oral dose group, 4b was weighed (21.138 mg) and transferred to a formulation container. The prepared vehicle (0.5% CMC, 2.11 mL) was transferred into the formulation container, and the contents were stirred and sonicated for a total of 20 min. The resultant formulation was a white homogenous suspension.
# Whole blood samples (225 µL each ∼90 µL plasma) were collected at each time point per animal into tubes containing K2EDTA. Samples were held on wet ice prior to centrifugation. Mice were bled twice; the first bleed was made via the submandibular facial vein, the second bleed was a terminal collection via cardiac puncture. […] The entire volume of the plasma sample was then transferred to individual tubes contained in a 96-well Matrix plate kept chilled in icy water through the entire process until storage at −70°C ±10°C. Collected plasma samples were stored at −70°C ±10°C until transferred to the analytical laboratory frozen on dry ice for bioanalysis.
# The brain of each animal was collected following CO2 euthanasia and terminal bleeding. Each brain was rinsed with saline once removed from the body (to flush away any blood that may have been present), snap frozen in liquid nitrogen, and stored individually in 15 mL conical tubes at −70°C ±10°C.
# Prior to extraction, acetonitrile: water (3∶1, v/v) was added to each tissue sample at a tissue: solvent ratio of 1∶3 (w/v) or 1∶2.536 (w/w), and homogenized using an OMNI tissue homogenizer. The actual volume of extraction buffer or organic solvent added to each tissue was recorded. Samples were kept chilled in icy water through the entire process until processed for 4b extraction. Immediately prior to extraction, tissue homogenates were thoroughly vortexed and aliquoted into 96-well plate(s). The entire process, from tissue homogenization to placing the samples in the tubes for 4b extraction, was conducted within 8 h.
# primary stock solution was prepared at 1 mg eq./mL in DMSO. The matrix calibration standards were prepared at 1, 2, 5, 10, 50, 250, 1000, 2500, 5000 and 10000 ng eq./mL in mouse plasma for plasma, and 0.25, 0.5, 1.25, 2.5, 12.5, 62.5, 250, 625, 1250, 2500 ng eq./mL in tissue homogenate for tissue analysis. Plasma samples were quantified against an external calibration curve generated in control plasma from male C57BL/6NCRL mice. Tissue samples were quantified against an external calibration standard curve generated in control brain tissue from male C57BL/6NCRL mice. […]
# [1] = C57BL/6NCRL, mouse, brain/plasma, po 50 mg eq./kg, mean (standard deviation), N = 3, read-out: B:P
# [2] = C57BL/6NCRL, mouse, brain/plasma, sc 4.22 mg eq./kg, mean (standard deviation), N = 3, read-out: B:P
compound,measurement,setting,value
Nc1ccccc1NC(=O)CCCCCC(=O)Nc1ccccc1 [Compound 4b],"brain concentration in the acute sc pharmacodynamic trial, fold higher than by oral dosing",150 mg/kg,~65 fold
same,AUC(0-inf),"C57BL/6NCRL, mouse, 4.22 mg/kg, mice, SC 4.22 mg eq./kg, plasma",1.63 µM·h
same,half-life,"C57BL/6NCRL, mouse, 4.22 mg/kg, mice, SC 4.22 mg eq./kg, plasma, read-out: T1/2 (converted)",39.6 min
same,AUC(0-inf),"C57BL/6NCRL, mouse, 50 mg/kg, mice, PO 50 mg eq./kg, brain",0.129 µM·h
same,half-life,"C57BL/6NCRL, mouse, 50 mg/kg, mice, PO 50 mg eq./kg, brain, read-out: T1/2 (converted)",182 min
same,AUC(0-inf),"C57BL/6NCRL, mouse, 50 mg/kg, mice, PO 50 mg eq./kg, plasma",1.08 µM·h
same,half-life,"C57BL/6NCRL, mouse, 50 mg/kg, mice, PO 50 mg eq./kg, plasma, read-out: T1/2 (converted)",166 min
same,Cmax,"C57BL/6NCRL, mouse, brain, po, 50 mg/kg, mice, PO 50 mg eq./kg, brain, read-out: Observed Cmax",24 nM
same,Tmax,"C57BL/6NCRL, mouse, brain, po, 50 mg/kg, mice, PO 50 mg eq./kg, brain",60 min
same,Cmax,"C57BL/6NCRL, mouse, brain, sc, 4.22 mg/kg, mice, SC 4.22 mg eq./kg, brain, read-out: Observed Cmax",134 nM
same,Tmax,"C57BL/6NCRL, mouse, brain, sc, 4.22 mg/kg, mice, SC 4.22 mg eq./kg, brain",30 min
same,Kp at 0.5 hr,[1],0.05
same,Kp at 1 hr,[1],0.08
same,Kp at 8 hr,"C57BL/6NCRL, mouse, brain/plasma, po 50 mg eq./kg, 8 hr, mean (standard deviation), N = 3, read-out: B:P",0.2
same,Kp at 0.5 hr,[2],0.09
same,Kp at 1 hr,[2],0.06
same,AUC,"C57BL/6NCRL, mouse, plasma, 50 mg/kg, mice, po 50 mg eq/kg",1.08 µM·h
same,Cmax,"C57BL/6NCRL, mouse, plasma, po, 50 mg/kg, mice, PO 50 mg eq./kg, plasma, read-out: Observed Cmax",1130 nM
same,Tmax,"C57BL/6NCRL, mouse, plasma, po, 50 mg/kg, mice, PO 50 mg eq./kg, plasma",≤ 30 min
same,Cmax,"C57BL/6NCRL, mouse, plasma, po, 50 mg/kg, mice, po 50 mg eq/kg, read-out: plasma Cmax",1300 nM
same,half-life,"C57BL/6NCRL, mouse, plasma, sc, 4.22 mg eq./kg, after subcutaneous dosing, read-out: plasma half-life",~40 min
same,Cmax,"C57BL/6NCRL, mouse, plasma, sc, 4.22 mg/kg, mice, SC 4.22 mg eq./kg, plasma, read-out: Observed Cmax",1340 nM
same,Tmax,"C57BL/6NCRL, mouse, plasma, sc, 4.22 mg/kg, mice, SC 4.22 mg eq./kg, plasma",≤ 30 min
same,Cmax,"C57BL/6NCRL, mouse, plasma, sc, 4.22 mg/kg, mice, sc 4.22 mg/kg, read-out: plasma Cmax",1340 nM
same,AUC,"C57BL/6NCRL, mouse, plasma, mice, sc 4.22 mg/kg",1.63 µM·h
same,estimated brain Cmax,"extrapolated to 150 mg/kg s.c., assuming linear kinetics",4000 to 5000 nM
same,estimated brain Cmax,extrapolated to oral bolus of 150 mg/kg,~72 nM
same,Cmax,"mice, PO 50 mg eq./kg, brain, read-out: Observed Cmax",24.3 nM
same,brain concentration (below LLQ),"po 50 mg/kg, after 8 h",< 2.3 nM eq.
same,plasma concentration (below LLQ),"po 50 mg/kg, after 8 h",< 3.07 nM eq.
same,plasma concentration (below LLQ),"sc 4.22 mg/kg eq, after 4 h",< 3.07 nM eq.
same,brain concentration (below LLQ),"sc 4.22 mg/kg eq, after 8 h",< 2.3 nM eq.
